What was measured:
[1] = test system: S. aureus N315 LugIEFGH; type: cell-based, Staphylococcus aureus; details: for recognized and transported by the lugdunin transporters LugIEFGH: derived from MIC ratio, FIG. 5
[2] = test system: human primary keratinocytes; test: WST-1 assay (cell viability/cytotoxicity); type: cell-based; details: 3.1 μg/ml, 6 h, 37° C., keratinocytes from three donors, versus DMSO solvent control
Method: To determine possible cytotoxicity, a WST-1 assay was first performed using human primary keratinocytes from three different donors according to the manufacturer's instructions. The colorimetric assay measures cell viability of cells and can therefore be used to determine cytotoxic compounds incubated with the cells. The greater the number of viable cells, the higher the activity of mitochondrial dehydrogenases and the greater the amount of dye formed in the assay. […] Cell culture supernatants were then removed, and WST1 reagent was added to the keratinocytes. […] DMSO served as a negative control (solvent control).

[3] = test system: human primary keratinocytes; test: LDH assay (lactate dehydrogenase release); type: cell-based; details: 3.1 μg/ml, 24 h, 37° C., keratinocytes from three donors, relative to Triton-X (100%)
Method: To verify the results, an LDH assay was performed using human primary keratinocytes from three different donors according to the manufacturer's instructions. This assay is based on the detection of the enzyme lactate dehydrogenase, which is released into the cell culture medium when the cell membrane is damaged, where it can then be detected. […] Subsequently, 50 μl of each cell culture supernatant was transferred to a 96well plate, mixed with 50 μl of LDH reagent and measured (according to manufacturer's instructions). […] DMSO served as a negative control (solvent control).

[4] = test system: SARS-CoV-2

Question: How did the formation of resistance ([1]; conclusion from MIC ratio) turn out when `CC(C)C[C@H]1NC(=O)[C@H](Cc2c[nH]c3ccccc23)NC(=O)[C@@H](C(C)C)NC(=O)[C@H]2NC(SC2(C)C)[C@H](C(C)C)NC(=O)[C@@H](C(C)C)NC(=O)[C@H](C(C)C)NC1=O` [I.1] was run?
Answer: Its formation of resistance is “no formation of resistance is to be expected”.

Question: What about the “recognized and transported by the lugdunin transporters LugIEFGH” value [1] of the same compound?
Answer: The value was “neither I.1 nor CCCP, is recognized and transported”.

Question: What about the “MIC ratio MIC(S. aureus LugIEFGH)/MIC(S. aureus Wt)” value ([1]; ratio close to 1 = no resistance increase by the transporters, lugdunin value is the median) of the same compound?
Answer: The value was 1.064.

Question: With `CC(C)C[C@H]1NC(=O)[C@H](Cc2c[nH]c3ccccc23)NC(=O)[C@@H](C(C)C)NC(=O)[C@H]2NC(SC2(C)C)[C@H](C(C)C)NC(=O)[C@@H](Cc2c[nH]c3ccccc23)NC(=O)[C@H](C(C)C)NC1=O` [I.3] as the compound, how does the “cytotoxic effect in WST-1 assay” value [2] read?
Answer: Its value is “no such cytotoxic effect”.

Question: What about the “cytotoxic effect in LDH assay” value [3] of the same compound?
Answer: Its value is “no significant cytotoxic effect”.

Question: What about the virus inhibition ([4]; A549 cells, SARS-CoV-2 MOI=1.0, concentration 3.7 μM) of the same compound?
Answer: Its virus inhibition is “about 80%”.

Question: What about the “antiviral activity relative to lugdunin” value ([4]; higher antiviral activity than lugdunin, from EC50 values) of the same compound?
Answer: Its value is “approximately 9 fold”.

Question: What about the EC50 ([4]; read-out: EC50 (SARS-CoV-2 antiviral activity), A549 cells, SARS-CoV-2 MOI=1.0) of the same compound?
Answer: Its EC50 is 2.23 µM.

Question: Which “recognized and transported by the lugdunin transporters LugIEFGH” value [1] does the source give for “carbonyl cyanide-3-chrlophenylhydrazone [CCCP, reference compound]” here?
Answer: The value was “neither I.1 nor CCCP, is recognized and transported”.
